Results reported in ChEMBL document CHEMBL1201861, “Genomics of Drug Sensitity in Cancer screening data, Wellcome Trust Sanger Institute”.

What was measured:
Assay in all cases: cells
CWR22R = assay type: functional, cell-based, Homo sapiens; details: Homo sapiens, 22Rv1;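 further: growth inhibition of 22Rv1 cells, read out with a cell viability assay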
Description: SANGER: Inhibition of human 22RV1 cell growth in a cell viability assay.

RPMI-2650 = assay type: functional, cell-based, Homo sapiens; details: Homo sapiens, RPMI-2650
Description: SANGER: Inhibition of human RPMI-2650 cell growth in a cell viability assay.

BB30-HNC = assay type: functional, cell-based, Homo sapiens; details: Homo sapiens, BB30-HNC;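 further: growth inhibition of the cultured cell line, read out by a cell viability assay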
Description: SANGER: Inhibition of human BB30-HNC cell growth in a cell viability assay.

SK-MEL-24 = assay type: functional, cell-based; details: Homo sapiens;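 further: growth inhibition read out by a cell viability assay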
Description: SANGER: Inhibition of human SK-MEL-24 cell growth in a cell viability assay.

GAMG = assay type: functional, cell-based, Homo sapiens; details: Homo sapiens, GAMG;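 further: cell growth inhibition measured by a viability assay in the GAMG human cell line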
Description: SANGER: Inhibition of human GAMG cell growth in a cell viability assay.

K562 = assay type: functional, cell-based; details: Homo sapiens
Description: SANGER: Inhibition of human K-562 cell growth in a cell viability assay.

J-RT3-T3-5 = assay type: functional, cell-based; details: Homo sapiens;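 further: cell viability assay measuring growth inhibition of human J-RT3-T3-5 cells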
Description: SANGER: Inhibition of human J-RT3-T3-5 cell growth in a cell viability assay.

SNU1 = assay type: functional, cell-based; details: Homo sapiens;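 further: growth inhibition of human NCI-SNU-1 cells, measured with a cell viability assay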
Description: SANGER: Inhibition of human NCI-SNU-1 cell growth in a cell viability assay.

HO-1-N-1 = assay type: functional, cell-based, Homo sapiens; details: Homo sapiens, HO-1-N-1;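 further: growth inhibition of human HO-1-N-1 cells, read out with a cell viability assay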
Description: SANGER: Inhibition of human HO-1-N-1 cell growth in a cell viability assay.

BXPC-3 = assay type: functional, cell-based, Homo sapiens; details: Homo sapiens, BXPC-3;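 further: growth inhibition of human BxPC-3 cells, read out by a cell viability assay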
Description: SANGER: Inhibition of human BxPC-3 cell growth in a cell viability assay.

OCUB-M = assay type: functional, cell-based, Homo sapiens; details: Homo sapiens, OCUB-M;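 further: growth inhibition of the cancer cell line, read out through a cell viability assay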
Description: SANGER: Inhibition of human OCUB-M cell growth in a cell viability assay.

S-117 = assay type: functional, cell-based, Homo sapiens; details: Homo sapiens, S-117
Description: SANGER: Inhibition of human S-117 cell growth in a cell viability assay.

DSH1 = assay type: functional, cell-based, Homo sapiens; details: Homo sapiens, DSH1;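 further: growth inhibition of human DSH1 cells, measured with a cell viability readout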
Description: SANGER: Inhibition of human DSH1 cell growth in a cell viability assay.

NB17 = assay type: functional, cell-based; details: Homo sapiens;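 further: growth inhibition of NB17 cells, read out with a cell viability assay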
Description: SANGER: Inhibition of human NB17 cell growth in a cell viability assay.

SW1463 = assay type: functional, cell-based, Homo sapiens; details: Homo sapiens, SW1463;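 further: growth inhibition of SW1463 cells, determined with a cell viability assay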
Description: SANGER: Inhibition of human SW1463 cell growth in a cell viability assay.

CP50-MEL-B = assay type: functional, cell-based, Homo sapiens; details: Homo sapiens, CP50-MEL-B;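 further: growth inhibition of the human cell line, measured with a cell viability read-out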
Description: SANGER: Inhibition of human CP50-MEL-B cell growth in a cell viability assay.

IGROV-1 = assay type: functional, cell-based, Homo sapiens; details: Homo sapiens, IGROV-1;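 further: reduction of IGROV-1 cell growth, read out with a viability assay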
Description: SANGER: Inhibition of human IGROV-1 cell growth in a cell viability assay.

CAL-51 = assay type: functional, cell-based, Homo sapiens; details: Homo sapiens, CAL-51;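 further: human CAL-51 cell line, growth inhibition read out via a cell viability assay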
Description: SANGER: Inhibition of human CAL-51 cell growth in a cell viability assay.

HOS = assay type: functional, cell-based, Homo sapiens; details: Homo sapiens, HOS;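 further: growth inhibition of human HOS cells, read out with a cell viability assay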
Description: SANGER: Inhibition of human HOS cell growth in a cell viability assay.

HCC1395 = assay type: functional, cell-based, Homo sapiens; details: Homo sapiens, HCC1395;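 further: growth inhibition of HCC1395 cells, read out by a cell viability assay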
Description: SANGER: Inhibition of human HCC1395 cell growth in a cell viability assay.

RCM-1 = assay type: functional, cell-based, Homo sapiens; details: Homo sapiens, RCM-1;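 further: growth inhibition of the RCM-1 line, determined with a cell viability readout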
Description: SANGER: Inhibition of human RCM-1 cell growth in a cell viability assay.

NCI-H2452 = assay type: functional, cell-based, Homo sapiens; details: Homo sapiens, NCI-H2452;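 further: growth inhibition of NCI-H2452 cells, read out with a cell viability assay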
Description: SANGER: Inhibition of human NCI-H2452 cell growth in a cell viability assay.

DJM-1 = assay type: functional, cell-based, Homo sapiens; details: Homo sapiens, DJM-1;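 further: growth inhibition of human DJM-1 cells, read out by a cell viability assay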
Description: SANGER: Inhibition of human DJM-1 cell growth in a cell viability assay.

HT-1376 = assay type: functional, cell-based, Homo sapiens; details: Homo sapiens, HT-1376
Description: SANGER: Inhibition of human HT-1376 cell growth in a cell viability assay.

L-363 = assay type: functional, cell-based; details: Homo sapiens
Description: SANGER: Inhibition of human L-363 cell growth in a cell viability assay.

A2780 = assay type: functional, cell-based, Homo sapiens; details: Homo sapiens, A2780;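 further: growth inhibition of A2780 cells, read out with a cell viability assay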
Description: SANGER: Inhibition of human A2780 cell growth in a cell viability assay.

SK-N-AS = assay type: functional, cell-based, Homo sapiens; details: Homo sapiens, SK-N-AS;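 further: growth inhibition of human SK-N-AS cells, measured with a cell viability assay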
Description: SANGER: Inhibition of human SK-N-AS cell growth in a cell viability assay.

NCI-H2126 = assay type: functional, cell-based, Homo sapiens; details: Homo sapiens, NCI-H2126;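 further: growth inhibition of the cancer cell line, determined with a cell viability readout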
Description: SANGER: Inhibition of human NCI-H2126 cell growth in a cell viability assay.

KP-4 = assay type: functional, cell-based, Homo sapiens; details: Homo sapiens, KP-4; read-out: IC50;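 further: human KP-4 cells, with growth inhibition read out through a cell viability assay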
Description: SANGER: Inhibition of human KP-4 cell growth in a cell viability assay.

D-502MG = assay type: functional, cell-based, Homo sapiens; details: Homo sapiens, D-502MG
Description: SANGER: Inhibition of human D-502MG cell growth in a cell viability assay.

LXF-289 cell line = assay type: functional, cell-based, Homo sapiens; details: Homo sapiens, LXF-289
Description: SANGER: Inhibition of human LXF-289 cell growth in a cell viability assay.

Ramos-2G6-4C10 = assay type: functional, cell-based; details: Homo sapiens;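 further: growth inhibition of the cell line, measured by a cell viability read-out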
Description: SANGER: Inhibition of human Ramos-2G6-4C10 cell growth in a cell viability assay.

SW872 = assay type: functional, cell-based, Homo sapiens; details: Homo sapiens, SW872;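 further: growth inhibition of SW872 cells, read out by a viability assay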
Description: SANGER: Inhibition of human SW872 cell growth in a cell viability assay.

MDA-MB-415 = assay type: functional, cell-based; details: Homo sapiens
AU565 = assay type: functional, cell-based, Homo sapiens; details: Homo sapiens, AU565;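 further: cell viability assay measuring growth inhibition of human AU565 cells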
Description: SANGER: Inhibition of human AU565 cell growth in a cell viability assay.

A3-KAW = assay type: functional, cell-based; details: Homo sapiens;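 further: growth inhibition of human A3-KAW cells, read out with a cell viability assay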
Description: SANGER: Inhibition of human A3-KAW cell growth in a cell viability assay.

OCI-AML2 = assay type: functional, cell-based; details: Homo sapiens;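 further: growth inhibition of OCI-AML2 cells, read out with a cell viability assay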
Description: SANGER: Inhibition of human OCI-AML2 cell growth in a cell viability assay.

SK-N-DZ = assay type: functional, cell-based, Homo sapiens; details: Homo sapiens, SK-N-DZ;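 further: growth inhibition of the cancer cell line, read out through a viability assay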
Description: SANGER: Inhibition of human SK-N-DZ cell growth in a cell viability assay.

UMC-11 = assay type: functional, cell-based, Homo sapiens; details: Homo sapiens, UMC-11;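 further: growth inhibition of UMC-11 cells, read out with a cell viability assay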
Description: SANGER: Inhibition of human UMC-11 cell growth in a cell viability assay.

EM-2 = assay type: functional, cell-based; details: Homo sapiens;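 further: growth inhibition of EM-2 cells, read out with a cell viability assay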
Description: SANGER: Inhibition of human EM-2 cell growth in a cell viability assay.

C3A = assay type: functional, cell-based, Homo sapiens; details: Homo sapiens, C3A;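 further: growth inhibition of C3A human cells, quantified with a cell viability readout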
Description: SANGER: Inhibition of human C3A cell growth in a cell viability assay.

TGBC24TKB = assay type: functional, cell-based, Homo sapiens; details: Homo sapiens, TGBC24TKB;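 further: growth inhibition of human TGBC24TKB cells, read out with a cell viability assay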
Description: SANGER: Inhibition of human TGBC24TKB cell growth in a cell viability assay.

NCI-H650 = assay type: functional, cell-based, Homo sapiens; details: Homo sapiens, NCI-H650;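 further: growth inhibition of NCI-H650 cells, read out by a viability assay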
Description: SANGER: Inhibition of human NCI-H650 cell growth in a cell viability assay.

COLO-684 = assay type: functional, cell-based; details: Homo sapiens
Description: SANGER: Inhibition of human COLO-684 cell growth in a cell viability assay.

KNS-42 = assay type: functional, cell-based, Homo sapiens; details: Homo sapiens, KNS-42;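 further: growth inhibition of KNS-42 cells, read out with a cell viability assay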
Description: SANGER: Inhibition of human KNS-42 cell growth in a cell viability assay.

HEC-1 = assay type: functional, cell-based, Homo sapiens; details: Homo sapiens, HEC-1;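 further: growth inhibition of the cell line, read out with a cell viability assay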
Description: SANGER: Inhibition of human HEC-1 cell growth in a cell viability assay.

MV4-11 = assay type: functional, cell-based, MV-4-11; details: Homo sapiens;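 further: cell viability readout measuring growth inhibition of human MV-4-11 cells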
Description: SANGER: Inhibition of human MV-4-11 cell growth in a cell viability assay.

NCI-H2087 = assay type: functional, cell-based, Homo sapiens; details: Homo sapiens, NCI-H2087;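 further: growth inhibition determined with a cell viability readout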
Description: SANGER: Inhibition of human NCI-H2087 cell growth in a cell viability assay.

C-33-A = assay type: functional, cell-based, Homo sapiens; details: Homo sapiens, C-33-A;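 further: cell viability assay measuring growth inhibition of C-33-A cells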
Description: SANGER: Inhibition of human C-33-A cell growth in a cell viability assay.

KYSE-70 cell line = assay type: functional, cell-based, Homo sapiens; details: Homo sapiens, KYSE-70;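 further: cell viability assay read-out, with IC50 expressing suppression of KYSE-70 cell growth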
Description: SANGER: Inhibition of human KYSE-70 cell growth in a cell viability assay.

MMAC-SF = assay type: functional, cell-based, Homo sapiens; details: Homo sapiens, MMAC-SF;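 further: growth inhibition of human MMAC-SF cells, read out with a cell viability assay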
Description: SANGER: Inhibition of human MMAC-SF cell growth in a cell viability assay.

DMS-79 = assay type: functional, cell-based; details: Homo sapiens;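 further: growth inhibition measured with a cell viability assay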
Description: SANGER: Inhibition of human DMS-79 cell growth in a cell viability assay.

COc1ccc(-c2ccc3c(N4CCOC[C@@H]4C)nc(N4CCOC[C@@H]4C)nc3n2)cc1CO [AZD-8055]
IC50 (CWR22R): 707 nM | IC50 (RPMI-2650): 1680 nM | IC50 (BB30-HNC): 1860 nM | IC50 (SK-MEL-24): > 2000 nM | IC50 (GAMG): 557 nM | IC50 (K562): > 2000 nM | IC50 (J-RT3-T3-5): 532 nM | IC50 (SNU1): 323 nM | IC50 (HO-1-N-1): 681 nM | IC50 (BXPC-3): 888 nM | IC50 (OCUB-M): 827 nM | IC50 (S-117): > 2000 nM | IC50 (DSH1): > 2000 nM | IC50 (NB17): > 2000 nM | IC50 (SW1463): > 2000 nM | IC50 (CP50-MEL-B): 884 nM | IC50 (IGROV-1): 675 nM | IC50 (CAL-51): 197 nM | IC50 (HOS): 572 nM | IC50 (HCC1395): > 2000 nM | IC50 (RCM-1): > 2000 nM | IC50 (NCI-H2452): 619 nM | IC50 (DJM-1): 1620 nM | IC50 (HT-1376): > 2000 nM | IC50 (L-363): 390 nM | IC50 (A2780): 1720 nM | IC50 (SK-N-AS): > 2000 nM | IC50 (NCI-H2126): 1680 nM | IC50 (KP-4): > 2000 nM | IC50 (D-502MG): > 2000 nM | IC50 (LXF-289 cell line): 250 nM | IC50 (Ramos-2G6-4C10): 170 nM | IC50 (SW872): 1390 nM | IC50 (MDA-MB-415): 1220 nM | IC50 (AU565): > 2000 nM | IC50 (A3-KAW): 297 nM | IC50 (OCI-AML2): > 2000 nM | IC50 (SK-N-DZ): > 2000 nM | IC50 (UMC-11): > 2000 nM | IC50 (EM-2): 342 nM | IC50 (C3A): > 2000 nM | IC50 (TGBC24TKB): 1860 nM | IC50 (NCI-H650): 791 nM | IC50 (COLO-684): 457 nM | IC50 (KNS-42): > 2000 nM | IC50 (HEC-1): 1180 nM | IC50 (MV4-11): 103 nM | IC50 (NCI-H2087): > 2000 nM | IC50 (C-33-A): 904 nM | IC50 (KYSE-70 cell line): 1740 nM

CCC1=C[C@@H]2CN(C1)Cc1c([nH]c3ccccc13)[C@@](C(=O)OC)(c1cc3c(cc1OC)N(C)[C@H]1[C@@](O)(C(=O)OC)[C@H](OC(C)=O)[C@]4(CC)C=CCN5CC[C@]31[C@@H]54)C2 [VINORELBINE]
IC50 (CWR22R): 8.79 nM | IC50 (RPMI-2650): 10 nM | IC50 (BB30-HNC): 0.399 nM | IC50 (SK-MEL-24): > 64 nM | IC50 (GAMG): 13 nM | IC50 (K562): > 64 nM | IC50 (J-RT3-T3-5): 6.83 nM | IC50 (SNU1): 32.7 nM | IC50 (HO-1-N-1): 6.65 nM | IC50 (BXPC-3): 3.9 nM | IC50 (OCUB-M): 4.43 nM | IC50 (S-117): > 64 nM | IC50 (DSH1): 4.87 nM | IC50 (SW1463): > 64 nM | IC50 (CP50-MEL-B): 43.4 nM | IC50 (IGROV-1): 2.2 nM | IC50 (CAL-51): 8.61 nM | IC50 (HOS): 3.22 nM | IC50 (HCC1395): 15.9 nM | IC50 (RCM-1): > 64 nM | IC50 (NCI-H2452): > 64 nM | IC50 (DJM-1): 15.9 nM | IC50 (HT-1376): 31.5 nM | IC50 (L-363): 12.4 nM | IC50 (MMAC-SF): 20.5 nM | IC50 (A2780): 6.38 nM | IC50 (SK-N-AS): > 64 nM | IC50 (NCI-H2126): 29.3 nM | IC50 (KP-4): 2.71 nM | IC50 (D-502MG): > 64 nM | IC50 (LXF-289 cell line): 4.68 nM | IC50 (Ramos-2G6-4C10): 4.45 nM | IC50 (SW872): 5.65 nM | IC50 (MDA-MB-415): 24.1 nM | IC50 (DMS-79): > 64 nM | IC50 (AU565): 8.19 nM | IC50 (A3-KAW): 21.6 nM | IC50 (OCI-AML2): 10.3 nM | IC50 (SK-N-DZ): > 64 nM | IC50 (UMC-11): > 64 nM | IC50 (EM-2): 44.8 nM | IC50 (C3A): > 64 nM | IC50 (TGBC24TKB): 20.1 nM | IC50 (NCI-H650): 16.1 nM | IC50 (COLO-684): 13.7 nM | IC50 (KNS-42): 8.03 nM | IC50 (HEC-1): 22.7 nM | IC50 (MV4-11): 10.4 nM | IC50 (NCI-H2087): 8.22 nM | IC50 (C-33-A): 7.31 nM | IC50 (KYSE-70 cell line): 16.7 nM
